In paper PMC3361616 (European Journal of Medicinal Chemistry, 2012):
Counter-ions that a name gives are not always drawn.

Legend:
5HT1A receptor = target: T1, 5HT1A receptor (Homo sapiens, UniProt P08908); assay: NIMH-PDSP radioligand binding, 5HT1A; conditions: for fold increase in binding affinity to the 5HT1A receptor: over compound 8
T1 sequence (P08908 1-422): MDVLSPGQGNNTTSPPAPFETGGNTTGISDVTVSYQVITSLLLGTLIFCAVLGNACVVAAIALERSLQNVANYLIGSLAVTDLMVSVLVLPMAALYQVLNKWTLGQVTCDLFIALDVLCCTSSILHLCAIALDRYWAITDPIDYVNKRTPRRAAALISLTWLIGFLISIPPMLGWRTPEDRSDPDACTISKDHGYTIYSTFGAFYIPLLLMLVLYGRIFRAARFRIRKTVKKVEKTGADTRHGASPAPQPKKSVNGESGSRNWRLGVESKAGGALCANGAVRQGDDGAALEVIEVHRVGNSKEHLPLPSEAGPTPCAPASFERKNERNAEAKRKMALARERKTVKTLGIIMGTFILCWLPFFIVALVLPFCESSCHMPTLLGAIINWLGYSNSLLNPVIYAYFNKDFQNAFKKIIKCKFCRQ

[1] = target: serotonin transporter (SERT) (Homo sapiens, UniProt P31645); assay: NIMH-PDSP radioligand binding, SERT
Chain of serotonin transporter (SERT) (P31645 whole entry, species assumed): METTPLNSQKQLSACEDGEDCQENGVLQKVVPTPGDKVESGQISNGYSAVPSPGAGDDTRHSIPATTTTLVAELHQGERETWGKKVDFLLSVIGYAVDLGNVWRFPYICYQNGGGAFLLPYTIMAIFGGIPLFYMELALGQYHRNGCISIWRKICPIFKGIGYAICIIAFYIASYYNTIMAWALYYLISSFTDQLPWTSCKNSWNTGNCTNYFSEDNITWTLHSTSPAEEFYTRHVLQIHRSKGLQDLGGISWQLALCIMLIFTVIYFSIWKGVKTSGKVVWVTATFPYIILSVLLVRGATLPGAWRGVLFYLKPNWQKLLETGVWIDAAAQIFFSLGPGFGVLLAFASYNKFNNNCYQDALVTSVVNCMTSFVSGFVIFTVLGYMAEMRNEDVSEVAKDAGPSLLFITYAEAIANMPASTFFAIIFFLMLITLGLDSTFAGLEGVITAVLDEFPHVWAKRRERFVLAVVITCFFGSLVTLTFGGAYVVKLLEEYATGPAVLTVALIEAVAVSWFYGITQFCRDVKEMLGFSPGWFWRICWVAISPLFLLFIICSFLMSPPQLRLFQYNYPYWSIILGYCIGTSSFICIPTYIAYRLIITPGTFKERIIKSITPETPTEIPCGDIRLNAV

D4 receptor (DAD4) = target: T2, D4 receptor (DAD4) (Homo sapiens, UniProt P21917); assay: NIMH-PDSP radioligand binding, DAD4
T2 sequence (P21917 1-419): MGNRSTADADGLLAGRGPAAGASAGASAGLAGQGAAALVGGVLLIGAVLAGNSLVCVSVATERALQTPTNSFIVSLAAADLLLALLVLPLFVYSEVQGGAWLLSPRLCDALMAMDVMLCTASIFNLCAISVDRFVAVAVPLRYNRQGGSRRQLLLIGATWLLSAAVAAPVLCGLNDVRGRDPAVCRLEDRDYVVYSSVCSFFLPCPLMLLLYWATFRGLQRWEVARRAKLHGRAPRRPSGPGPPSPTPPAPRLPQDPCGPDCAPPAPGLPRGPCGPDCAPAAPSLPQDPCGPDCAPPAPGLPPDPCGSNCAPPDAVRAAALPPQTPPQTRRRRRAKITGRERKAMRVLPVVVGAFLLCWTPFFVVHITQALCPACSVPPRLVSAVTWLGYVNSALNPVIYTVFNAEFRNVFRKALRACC

Clc1ccc(N2CCN(CCCCc3nc4ccccc4s3)CC2)cc1 [Compound 8, 2-(4-(4-(4-Chlorophenyl)piperazin-1-yl)butyl)benzo[d]thiazole]
fold increase in binding to the 5HT1A receptor (5HT1A receptor; compared with compound 4): ~3 fold | fold decrease in binding at the SERT site ([1]; compared with compound 4): 2.6 fold

O=C(CCCCN1CCC(c2ccccc2)CC1)c1nc2ccccc2s1 [Compound 23, 1-(Benzo[d]thiazol-2-yl)-5-(4-phenyl-piperidin-1-yl)-pentan-1-one hydrochloride]
fold decrease in binding affinity at the 5HT1A receptor (5HT1A receptor; compared with compound 22): 2 fold

O=C(CCCCN1CCN(c2ccc(Cl)cc2)CC1)c1nc2ccccc2s1 [Compound 20, 1-(Benzo[d]thiazol-2-yl)-5-(4-(4-chlorophenyl)piperazin-1-yl)pentan-1-one hydrochloride]
Ki (D4 receptor (DAD4)): 100 ± 10 nM | fold increase in binding affinity to the 5HT1A receptor (5HT1A receptor): over 3 fold | fold enhancement of binding to SERT ([1]; compared with compound 8): over 2 fold

c1ccc2c(c1)CCN(CCCCc1nc3ccccc3s1)C2 [Compound 11, 2-(4-Benzo[d]thiazol-2-yl-butyl)-1,2,3,4-tetrahydro-isoquinoline p-toluenesulfonate]
fold increase in binding affinity to the 5HT1A receptor (5HT1A receptor): about 18 fold
